Laboratory results from patent publication US12133839B2, “Cannabinoid derivatives and methods for their preparation” (priority 2018, dated 2024).

Columns and labels:
[1] = system: Cytochrome P450 (Cy-P450)
Cy-P450 = settings: compared with CBD

CCCCCc1cc(O)c(C2CC(C)CCC2C(C)C)c(O)c1C(C)=O (centres unmarked) [Tetradhydro 2′-acetyl CBD (III), [Ar]-Acetyl Tetrahydrocannabidiol]
time for which formation of 11-Hydroxy THC is prevented (enhanced CBD effect) [1]: about one

CCCCCc1cc(O)c(C2CC(C)CCC2C(C)C)c(O)c1 (centres unmarked) [Tetrahydro CBD (II), Tetrahydrocannabidiol]
duration of the increased CBD activity [1]: only a few minutes
increase in CBD activity, in effect and duration ([1]; compared with CBD): approximately double
oxidation by Cy-P450 (Cy-P450): slower oxidation

CCCCCc1cc(O)c(C2CC(C)CCC2C(C)C)c(O)c1C(=O)CC (centres unmarked) [[Ar]-Propionyl Tetrahydrocannabidiol]
time for which THC metabolism is delayed [1]: up to 48 hours
